In patent US20190284129A1, “LIPID COMPOUNDS AND COMPOSITIONS AND THEIR OPTHALMIC USE” (BIOZEP AS, priority 2015, published 2019):
Several values for one entry are separate records, joined by “and”; a condition that tells them apart may be missing. Equal values may be shown once.

How the values were obtained:
Format in all cases: cell-based
human PPARgamma = target: T1, human PPARgamma (Homo sapiens, UniProt P37231); test: cellular GAL4 reporter gene assay, agonist mode, PPARgamma
T1 construct: expressed in transfected cells; host or cells: HEK293 (DSMZ ACC 305)
T1 sequence (P37231 238-503 limits assumed): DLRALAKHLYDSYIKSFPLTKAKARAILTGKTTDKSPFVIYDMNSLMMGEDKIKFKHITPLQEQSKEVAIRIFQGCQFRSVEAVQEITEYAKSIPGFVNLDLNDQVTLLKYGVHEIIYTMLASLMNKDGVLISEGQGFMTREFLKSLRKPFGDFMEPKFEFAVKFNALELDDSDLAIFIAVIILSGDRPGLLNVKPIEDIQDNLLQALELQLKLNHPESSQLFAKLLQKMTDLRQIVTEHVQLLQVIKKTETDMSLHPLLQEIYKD
From the text: (§1) The assays were done in HEK293 cells (DSMZ ACC 305). The plasmids used in the GAL4 assay system were derivatives of Stratagene's […] plasmids: the reporter plasmid pFR-Luc (containing a synthetic promoter with five tandem repeats of the yeast GAL4 binding sites that control expression of the Photinus pyralis (American firefly) luciferase gene), and pCMV-BD (for fusions of nuclear receptor ligand binding domains to the DNA-binding domain of the yeast protein GAL4). In order to improve experimental accuracy, a second reporter-Renilla reniformis luciferase, driven by a constitutive promoter-was included as an internal control. Using the control reporter (Renilla Luciferase) allowed corrections for variations in experimental handling, e.g. transfection efficacy, cell viability, pipetting errors, cell lysis efficiency and assay efficiency. […] The compounds BIZ-102 and BIZ-103 were tested at the human PPARbeta/delta and PPARgamma receptors using the same cellular GAL4 Reporter gene assays as in Example 6. The assays were run in agonist mode to detect agonistic activities of the tested compounds.

human PPARbeta/delta = target: T2, human PPARbeta/delta (Homo sapiens, UniProt Q03181); test: cellular GAL4 reporter gene assay, agonist mode, PPARbeta/delta
T2 construct: expressed in transfected cells; host or cells: HEK293 (DSMZ ACC 305)
T2 sequence (Q03181 211-439 limits assumed): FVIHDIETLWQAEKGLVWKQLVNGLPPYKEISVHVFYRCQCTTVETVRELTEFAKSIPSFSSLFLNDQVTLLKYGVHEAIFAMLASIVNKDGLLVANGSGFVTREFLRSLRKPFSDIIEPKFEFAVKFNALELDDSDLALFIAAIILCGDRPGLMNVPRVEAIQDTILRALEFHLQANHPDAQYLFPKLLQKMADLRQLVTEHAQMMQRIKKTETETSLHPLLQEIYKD
From the text: as §1

human PPARalpha receptor = target: T3, human PPARalpha receptor (Homo sapiens, UniProt Q07869); test: cellular GAL4 reporter gene assay (M1H) in HEK293 cells, PPARalpha; conditions: agonist mode; for Efficacy vs. Fenofibric Acid / Efficacy vs. GW7647: HEK293; for EC50: HEK293, GAL4 reporter
T3 construct: expressed in transfected cells; host or cells: HEK293 (DSMZ ACC 305)
T3 sequence (Q07869 239-466 limits assumed): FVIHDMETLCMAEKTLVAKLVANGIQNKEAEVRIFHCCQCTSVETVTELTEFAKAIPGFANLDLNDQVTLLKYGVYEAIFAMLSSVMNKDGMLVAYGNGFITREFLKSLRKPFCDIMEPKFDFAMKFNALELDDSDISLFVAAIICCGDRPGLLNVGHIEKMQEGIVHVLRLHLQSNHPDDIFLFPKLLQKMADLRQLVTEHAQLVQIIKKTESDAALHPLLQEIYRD
Method: The compounds BIZ-102 (Example 2), BIZ-103 (Example 5) and BIZ-106 were tested at the human PPARalpha receptor in a cellular GAL4 Reporter gene assay. The assay was run in agonist and antagonist mode to detect agonistic as well as antagonistic activities of the tested compounds.
Performance of the GAL4 cellular reporter assay:
Day 1: Cells were seeded in 96 well plates in plating medium (MEM with serum), incubation overnight at 37° C., 5% CO2.
Day 2: Removal of plating medium
Addition of PEI-based transfection agent
Incubation for 4-6 hours at 37° C., 5% CO2
Addition of assay medium (MEM with serum)
Addition of compounds (dilution series was generated in MEM with serum)
Incubation overnight at 37° C., 5% CO2
Day 3: Removal of assay medium (16-20 hours after compound addition)
Addition of Passive Lysis Buffer (Promega)
15 mins incubation at room temperature
Addition of luciferase buffers and measurement in a dual-flash procedure
The assays were done in HEK293 cells (DSMZ ACC 305). The plasmids used in the GAL4 assay system were derivatives of Stratagene's M2H plasmids: the reporter plasmid pFR-Luc (containing a synthetic promoter with five tandem repeats of the yeast GAL4 binding sites that control expression of the Photinus pyralis (American firefly) luciferase gene), and pCMV-BD (for fusions of nuclear receptor ligand binding domains to the DNA-binding domain of the yeast protein GAL4). In order to improve experimental accuracy, a second reporter—Renilla reniformis luciferase, driven by a constitutive promoter—was included as an internal control. Using the control reporter (Renilla Luciferase) allowed corrections for variations in experimental handling, e.g. transfection efficacy, cell viability, pipetting errors, cell lysis efficiency and assay efficiency.
Primary read out of the assays was loaded into PhAST (Phenex Assay and Screening Tool) and checked for assay quality (generation of SB and Zprime values). […] Within PhAST there are two measured and one calculated data layers:
LAYER1 (measured)—contains the activity values of the firefly luciferase activities and is a direct measure for modulation of the cofactor binding properties of the Nuclear Receptors by the tested compounds.
LAYER2 (measured)—contains the activity values of the renilla luciferase activities and is used as normalisation layer. As the renilla luciferase is expressed under control of the constitutively active CMV promoter, moderate well-to-well differences can be used to correct for variations in experimental handling.
LAYER3 (calculated)—is calculated according to the following equation: […]
1000*Firefly luciferase value/Renilla luciferase value
These normalised values are, as well as LAYER1, a measure for the modulation of the cofactor binding properties of the nuclear receptors by the tested compounds.

NF-κB pathway = test: NF-κB luciferase reporter assay in NF-κB Reporter-HEK293 cells, TNFa stimulated; conditions: FIG. 5
From the text: The NF-κB reporter (luc)-HEK293 cell line is designed for monitoring the nuclear factor Kappa B (NF-κB) signal transduction pathways. It contains a firefly luciferase gene driven by four copies of NF-κB response element located upstream of the minimal TATA promoter. After activation by pro-inflammatory cytokines or stimulants of lymphokine receptors, endogenous NF-κB transcription factors bind to the DNA response elements, inducing transcription of the luciferase reporter gene.
NF-κB Reporter-HEK293 cells were cultured in MEM medium with 10% FBS, 1% non-essential amino acids, 1 mM Na-pyruvate, 1% Penn-strep, and 100 µg/ml of Hygromycin B.
To perform the NF-κB luciferase reporter assay, NF-κB Reporter-HEK293 cells were seeded at 40,000 cells per well into white clear-bottom 96-well microplate in 45 μl of growth medium without Hygromycin B. Cells were incubated at 37° C. and 5% CO2 overnight to allow them to recover and reattach. The following day a series of dilutions of compounds were made in assay medium (MEM medium with 0.5% FBS, 1% non-essential amino acids, 1 mM Na-pyruvate, 1% Penn-strep). The medium was removed from the wells and 45 μl of diluted compound was added to the cells. Assay medium with DMSO was added to the untreated control wells and cell-free control wells. The final concentration of DMSO was 0.25%. The cells were incubated overnight at 37° C. in CO2 incubator. […]
After treatment, cells were then lysed and a luciferase assay was performed using the ONE-Step luciferase assay system. […] Luminescence was measured using a luminometer (BioTek Synergy™ 2 microplate reader).
Reporter assays were performed in triplicate at each concentration. The luminescence intensity data were analyzed using the computer software, Graphpad Prism. In the absence of the compound, the luminescence intensity (Lt) in each data set was defined as 100%. In the absence of cells, the luminescence intensity (Lb) in each data set was defined as 0%. The percent luminescence in the presence of each compound was calculated according to the following equation: % Luminescence=(L−Lb)/(Lt−Lb), where L=the luminescence intensity in the presence of the compound, Lb=the luminescence intensity in the absence of cells, and Lt=the luminescence intensity in the absence of the compound. The values of % luminescence versus a series of compound concentrations were then plotted using non-linear regression analysis of a Sigmoidal dose-response curve generated with the equation Y=B+(T B)/1+10^((Log EC50-X)×Hill Slope), where Y=percent luminescence, B=minimum percent luminescence, T=maximum percent luminescence, X=logarithm of compound and Hill Slope=slope factor or Hill coefficient. The IC50 value was determined by the concentration causing a half-maximal percent activity.

ARPE-19 cells = test: oxidative stress (tert-butyl hydroperoxide) cytolysis assay in ARPE-19 retinal pigment epithelial cells; conditions: fenofibric acid 25 μM, BIZ-101 10 μM
Method: In order to evaluate the potential of BIZ-101 to protective the eye from oxidative stress damage the compound was tested in a cell based assay. Oxidative stress was induced in an ARPE-19 cell line using tert-butyl hydroperoxide at different concentrations. The cellular viability was kinetically monitored and measured by analysing the plasma membrane integrity based on the incorporation of a non-permeant and fluorescent DNA intercalating agent that selectively stain cytolytic cells with comprised plasma membranes.
(§2) The ARPE-19 cell line was seeded and cultured in DMEM-F12 medium+10% SVF for 24 hrs in a 96 well plate. Cells were pre-treated or not with either fenofibric acid (25 μM) or compound BIZ-101 (10 μM) during this 24 hr period. After 24 hrs, the different concentrations of t-butyl hydroperoxide were added in the presence of a fluorescent DNA intercalating agent for the following monitoring. Live content time-lapse imaging was performed with a sampling rate of 1 image every 2 hr over a 96 hrs period. The number of fluorescent/cytolytic cells were counted and reported during the experiment. The treatment conditions were tested in one experiment session in a triplicate format.
Fenofibric acid was used at 25 μM and was ordered from Sigma Aldrich. The day of the pre-treatment, a 25 mM stock solution of fenofibric acid was prepared in DMSO and diluted in the complete culture medium at 25 μM. 100 μL of this solution or 100 μL of complete culture medium+0.1% DMSO replaced the 100 μL of the complete culture medium already present in the well. The day of the treatment with t-butyl hydroperoxide, a 2 times concentrated solution of fenofibric acid was freshly diluted in the complete culture medium and 50 μL of this solution or 50 μL of complete culture medium+0.2% DMSO were added to the 100 μL of the culture medium already present in the well.
Compound BIZ-101 was tested at a final concentration of 10 μM. A 10 mM predilution was prepared in DMSO from a 10 mM stock solution. The 10 mM solution of BIZ 101 was diluted in the complete culture medium at 10 μM. 100 μL, of this solution or 100 μL of the complete culture medium+0.1% DMSO replaced the 100 μL, of the complete culture medium already present in the well. The day of the treatment with t-butyl hydroperoxide, a 2 times concentrated solution of BIZ 101 was freshly diluted in the complete culture medium and 50 μL of this solution or 50 μL of complete culture medium+0.2% DMSO were added to the 100 μL of the culture medium already present in the well.
Preparation of the tert-butyl hydroperoxide [tBHP] solution: 0, 0.01 mM, 0.03 mM, 0.1 mM, 0.3 mM, 1 mM, 3 mM and 10 mM. A 4 times concentrated solution of tBHP was freshly diluted in the complete culture medium for each of the concentrations to be tested. 50 μL of the 4 times concentrated solution was added to the 150 μL of the cultured medium.
In order to evaluate the potential of BIZ-102 to protect the eye from oxidative stress damage the compound was tested in a cell based assay similar to Example 24 with the following changes. The oxidative stress in the ARPE-19 cell line was induced by using 3 different concentrations of tBHP: 10 μM, 30 μM and 100 μM and BIZ-102 was tested in 2 different concentrations: 1 μM and 10 μM.
as §2, with “with” for “with either fenofibric acid (25 μM) or”, “BIZ-102 (1 μM and 10” for “BIZ-101 (10”
Compound BIZ-102 was tested at a final concentration of 1 and 10 μM. […]

SMILES | Efficacy vs. Fenofibric Acid (human PPARalpha receptor) | Efficacy vs. GW7647 (human PPARalpha receptor) | EC50 (human PPARalpha receptor) | also measured
CCCCCCCCCCCCCCSC(C)C(=O)O (centres unmarked) [BIZ-103] | 55% | 180% |  | EC50 (human PPARgamma): 1.6 µM; PPARgamma efficacy vs. Rosiglitazone (human PPARgamma): 20%; EC50 (human PPARbeta/delta): 8.9 µM; PPARbeta/delta efficacy vs. GW501516 (human PPARbeta/delta): 18%
CC/C=C\C/C=C\C/C=C\C/C=C\C/C=C\C/C=C\CC(CC)C(=O)O (centres unmarked) [BIZ-106, 2-ethyl (4Z,7Z,10Z,13Z,16Z,19Z)-docosa-4,11,10,13,16,19-hexaenoic Acid] | 25% | 80% | ~5 µM and 5 µM | 
CCCCC/C=C\C/C=C\C/C=C\C/C=C\CCCC(=O)O [BIZ-107] | 30% | 100% | ~26 µM and 26 µM | 
CC/C=C\C/C=C\C/C=C\C/C=C\C/C=C\CCCCOC(CC)C(=O)O (centres unmarked) [BIZ-110, 2-((5Z,8Z,11Z,14Z,17Z)-icosa-5,8,11,14,17-pentaen-1-yloxy) butanoic Acid] |  |  |  | dose dependence of inhibitory effect on the NF-κB pathway (NF-κB pathway): dose dependent; complete inhibition of the NF-κB pathway (NF-κB pathway; at high concentration): completely inhibited
CC(C)(Oc1ccc(C(=O)c2ccc(Cl)cc2)cc1)C(=O)O [fenofibric acid, reference compound] |  |  | 10 to 18 µM | dose dependent cytotoxicity of tBHP (ARPE-19 cells; 6 hrs after addition of tBHP, 24 hr pre-treatment): slightly decreased; protective effects against tBHP cytotoxicity (ARPE-19 cells; 24 hrs after addition of t-BHP): more efficient
